{
  "source": "paper PMC7866854",
  "about": "“Pseudo-Dipeptide Bearing α,α-Difluoromethyl Ketone Moiety as Electrophilic Warhead with Activity against Coronaviruses” (International Journal of Molecular Sciences, 2021)",
  "key": {"SARS-CoV-2 M^pro": {"system": "SARS-CoV-2 M^pro", "conditions": "read-out: Exp. EC50; listed under SARS-CoV-2 Mpro; cited from earlier work"}, "[1]": {"molecular_target": "Anopheles gambiae acetylcholinesterase (AgAChE)", "conditions": "read-out: IC50, AgAChE inhibitor; cited from earlier work"}, "[2]": {"molecular_target": "bovine pancreatic α-chymotrypsin", "set-up": "method as in PMID 2353815, PMID 3527255", "conditions": "read-out: Ki, α-chymotrypsin inhibitor; cited from earlier work"}, "HIV-1 protease": {"molecular_target": "HIV-1 protease", "set-up": "method as in doi:10.1039/c39910000110", "conditions": "read-out: Ki, HIV protease inhibitor; cited from earlier work"}, "SARS-CoV M^pro": {"system": "SARS-CoV M^pro", "conditions": "read-out: IC50, SARS-CoV Mpro inhibitor; cited from earlier work"}, "hCoV-229E": {"system": "hCoV-229E", "test": "CPE-based antiviral assay (CellTiter-Glo cell viability as surrogate of CPE) in MRC5 cells infected with hCoV-229E", "conditions": "Human coronavirus 229E; for EC50: read-out: EC50, inhibition of hCoV-229E replication"}, "in vitro": {"test": "in vitro", "conditions": "human"}},
  "note": "Read-outs that look alike come from different tables or passages of the source.",
  "data": [
    {"molecule": "Cc1cc(C(=O)N[C@@H](C)C(=O)N[C@H](C(=O)N[C@@H](CC(C)C)C(=O)N[C@H](/C=C\\C(=O)OCc2ccccc2)C[C@@H]2CCNC2=O)C(C)C)no1", "note": "[N3]", "values": [
      {"measurement": "EC50", "setting": "SARS-CoV-2 M^pro", "value": "16.8 ± 1.7", "unit": "µM"}
    ]},
    {"molecule": "CC(C)(C)c1cccc(C(=O)C(F)F)c1", "note": "[compound 1]", "values": [
      {"measurement": "IC50", "setting": "[1]", "value": 0.00605, "unit": "µM"}
    ]},
    {"molecule": "CC(C)n1cc(C(=O)C(F)F)cn1", "note": "[compound 2]", "values": [
      {"measurement": "IC50", "setting": "[1]", "value": 0.802, "unit": "µM"}
    ]},
    {"molecule": "CC(=O)NC(CC(C)C)C(=O)NC(Cc1ccccc1)C(=O)C(F)F", "note": "(stereo not drawn) [compound 4, Ac-Leu-Phe-CHF2]", "values": [
      {"measurement": "Ki", "setting": "[2]", "value": 25, "unit": "µM"}
    ]},
    {"molecule": "CC(C)C(NC(=O)OCc1ccccc1)C(=O)NC(Cc1ccccc1)C(=O)C(F)(F)C(Cc1ccccc1)NC(=O)C(NC(=O)OCc1ccccc1)C(C)C", "note": "(stereo not shown) [compound 6]", "values": [
      {"measurement": "Ki", "setting": "HIV-1 protease", "value": 0.0001, "unit": "µM"}
    ]},
    {"molecule": "CC(C)CC(NC(=O)OCc1ccccc1)C(=O)NC(Cc1ccccc1)C(O)(O)C(F)(F)F", "note": "(stereo not drawn) [compound 7, Z-Leu-Phe-CF3]", "values": [
      {"measurement": "IC50", "setting": "SARS-CoV M^pro", "value": 10, "unit": "µM"}
    ]},
    {"molecule": "CC(C)CC(NC(=O)OCc1ccccc1)C(=O)NC(CCc1ccccc1)C(O)(O)C(F)F", "note": "(stereo not shown) [compound 8, Z-Leu-Homophe-CHF2]", "values": [
      {"measurement": "EC50", "setting": "hCoV-229E; MRC5, 72 h", "value": "12.9 ± 1.22", "unit": "µM"},
      {"measurement": "EC90", "setting": "hCoV-229E; MRC5 cells, 100 PFU/well, 72 h p.i., CellTiter-Glo, read-out: EC90, inhibition of hCoV-229E replication", "value": "38.6 ± 0.67", "unit": "µM"}
    ]},
    {"molecule": "CCC(CC)COC(=O)[C@H](C)N[P@](=O)(OC[C@H]1O[C@@](C#N)(c2ccc3c(N)ncnn23)[C@H](O)[C@@H]1O)Oc1ccccc1", "note": "[remdesivir]", "values": [
      {"measurement": "CC50", "setting": "in vitro", "value": "> 10", "unit": "µM"},
      {"measurement": "EC50", "setting": "hCoV-229E; MRC5 cells, 100 PFU/well, 72 h p.i., CellTiter-Glo", "value": "0.034 ± 0.0025", "unit": "µM"}
    ]}
  ]
}
